Legend:
[1] = tested on: human Notch 1; experiment: Notch-CBF1 Transactivation Assay (Notch 1); assay type: cell-based; conditions: read-out: Notch 1 (IC50); HeLa cells transfected with truncated Notch 1 and CBF1 luciferase reporter; 18 hours; average of N experiments
Excerpt: (§1) Notch-CBF1 Transactivation Assay
(§2) The Notch-CBF1 (C-promoter binding factor I) cell based transactivation assay is based on the ability of the released Notch intracellular domain fragments (NICDs) to function as transcription factors in conjunction with CBF1 and other nuclear factors. Luciferase assays were used to measure the antagonism of Notch-CBF1 transcriptional activity. HeLa cervical cancer cells are transiently co-transfected with pCDNA3.1/Hygro plasmids containing truncated Notch 1, Notch 2, Notch 3, or Notch 4 receptors and a PGL3 luciferase reporter vector containing 4 copies of CBF1 binding site. The cells were then tested for Notch-CBF1 activity in the absence or presence of test compounds. HeLa cells, maintained in DMEM (high glucose with HEPES), 1× glutamine/penicillin/streptomycin and 10% Fetal Bovine serum, were transiently transfected in a T175 Flask (4.5×10^6 cells/flask) using the Monster Transfection Kit (Minis #MIR2906) according to manufacturers specifications. Table 5 denotes respective DNA quantity for the transfections.
(§3) Assay media (5 μL) containing test compounds in final concentrations ranging from 5 μM to 8.4×10^−5 μM (3 fold serial dilutions) were added to the cells and the cell plates were then incubated for 18 hours at 37° C. and 5% CO2. Control wells contained DMSO vehicle (total counts) or 0.5 μM of an in-house small molecule inhibitor (background counts). Duplicates were used for each sample. Luciferase activity was measured after a 20-minute incubation with 50 μl STEADY-GLO® luciferase reagents according to manufacturer's specifications (Promega, Cat. #E2550) and analyzed by Envision plate reader (PerkinElmer, Boston, Mass.).
(§4) The antagonist effect of compounds was expressed as 100×[1−(average sample−average background)/(average total−average background)] where sample is the luciferase activity in the presence of test compound, background is equal to the luciferase activity in the presence of the small molecule inhibitor control and the total is signal induced in DMSO wells.

[2] = tested on: TALL-1; experiment: Human Tumor Xenograft Models in Mice (TALL-1); assay type: in vivo
Procedure: Human Tumor Xenograft Models in Mice
Mice were fed food and water ad libitum.
When death occurred, the day of death was recorded.

[3] = tested on: human Notch 3; experiment: Notch-CBF1 Transactivation Assay (Notch 3); assay type: cell-based; conditions: read-out: Notch 3 (IC50); HeLa cells transfected with truncated Notch 3 and CBF1 luciferase reporter; 18 hours; average of N experiments
Excerpt: as §1, §2, §3, §4

[4] = Human metabolic stability half-life assay; assay type: in vitro ADME; conditions: pH 7.4; human liver microsomes, NADPH, 0.5 μM compound, 45-minute time course; read-out: HLM (t1/2, min)
Excerpt: Metabolic Stability Half-Life Panel

Compound | IC50 [1] | antitumor activity with oral administration (PO) ([2]; Human Tumor Xenograft Models in mice, oral) | Antitumor Activity in TALL-1 (LCK) BID dosing ([2]; Oral Administration, Dose 10, Schedule BIDx10, LCK = Log Cell Kill, NOD-SCID mice) | IC50 [3] | half-life at 0.5 µM [4]
Cc1cccc2c1NC(=O)[C@@H](NC(=O)[C@H](CCC(F)(F)F)[C@H](CC1CC(F)(F)C1)C(N)=O)N=C2c1ccccc1 [Example 1, (2R,3S)-3-((3,3-Difluorocyclobutyl)methyl)-N-((3S)-9-methyl-2-oxo-5-phenyl-2,3-dihydro-1H-1,4-benzodiazepin-3-yl)-2-(3,3,3-trifluoropropyl)succinamide] | 3 nM | showed antitumor activity | 2.7 | 2.4 nM | 60 min
C[C@@H](C[C@H](C(N)=O)[C@@H](CCC(F)(F)F)C(=O)N[C@H]1N=C(c2ccccc2)c2cccc(F)c2NC1=O)C(F)(F)F [Example 19, (2R,3S)—N-((3S)-9-Fluoro-2-oxo-5-phenyl-2,3-dihydro-1H-1,4-benzodiazepin-3-yl)-3-((2S)-3,3,3-trifluoro-2-methylpropyl)-2-(3,3,3-trifluoropropyl)succinamide] | 2.9 nM |  |  | 2.4 nM | 80 min
NC(=O)[C@@H](CCCF)[C@@H](CCC(F)(F)F)C(=O)N[C@H]1N=C(c2ccccc2)c2cccc(Cl)c2NC1=O [Example 20, (2R,3S)—N-((3S)-9-Chloro-2-oxo-5-phenyl-2,3-dihydro-1H-1,4-benzodiazepin-3-yl)-3-(3-fluoropropyl)-2-(3,3,3-trifluoropropyl)succinamide] | 10.8 nM |  |  | 16.5 nM | 107 min
COc1cccc2c1NC(=O)[C@@H](NC(=O)[C@H](CCC(F)(F)F)[C@H](CCC(C)(F)F)C(N)=O)N=C2c1ccccc1 [Example 21] | 7.5 nM |  |  | 13.8 nM | 76 min
C[C@H](C[C@H](C(N)=O)[C@@H](CCC(F)(F)F)C(=O)N[C@H]1N=C(c2ccccc2)c2cccc(Cl)c2NC1=O)C(F)(F)F [Example 22, (2R,3S)—N-((3S)-9-Chloro-2-oxo-5-phenyl-2,3-dihydro-1H-1,4-benzodiazepin-3-yl)-3-((2R)-3,3,3-trifluoro-2-methylpropyl)-2-(3,3,3-trifluoropropyl)succinamide] | 3.2 nM |  |  | 9.3 nM | 117 min
C[C@@H](C[C@H](C(N)=O)[C@@H](CCC(F)(F)F)C(=O)N[C@H]1N=C(c2ccccc2)c2cccc(Cl)c2NC1=O)C(F)(F)F [Example 23, (2R,3S)—N-((3S)-9-Chloro-2-oxo-5-phenyl-2,3-dihydro-1H-1,4-benzodiazepin-3-yl)-3-((2S)-3,3,3-trifluoro-2-methylpropyl)-2-(3,3,3-trifluoropropyl)succinamide] | 5.1 nM |  |  | 3.2 nM | 111 min
CC(F)(F)CC[C@H](C(N)=O)[C@@H](CCC(F)(F)F)C(=O)N[C@H]1N=C(c2ccccc2)c2cccc(Cl)c2NC1=O [Example 24, (2R,3S)—N-((3S)-9-Chloro-2-oxo-5-phenyl-2,3-dihydro-1H-1,4-benzodiazepin-3-yl)-3-(3,3-difluorobutyl)-2-(3,3,3-trifluoropropyl)succinamide] | 3.9 nM |  |  | 5.4 nM | > 120 min
Cc1cccc2c1NC(=O)[C@@H](NC(=O)[C@H](CCC(F)(F)F)[C@H](CC1(F)CCC1)C(N)=O)N=C2c1ccccc1 [Example 25, (2R,3S)-3-((1-Fluorocyclobutyl)methyl)-N-((3S)-9-methyl-2-oxo-5-phenyl-2,3-dihydro-1H-1,4-benzodiazepin-3-yl)-2-(3,3,3-trifluoropropyl)succinamide] | 3.8 nM |  |  | 20.1 nM | 33 min
